PMC6405930, “Conservation of the Amyloid Interactome Across Diverse Fibrillar Structures” (Scientific Reports, 2019)

Legend:
C-36 fibrils [1] = target: T1, C-36 fibrils (Homo sapiens, UniProt P01009); assay: Fibril incubation with CSF, quantitative MS/MS of bound proteins; format: binding; set-up: key to Identification status of CSF protein bound: C-36: *: Identified, but not quantified; —: Not identified in any of the samples; settings: for Relative composition of CSF proteins bound: C-36: 4:1 w/w CSF protein:fibril
T1 construct: the 36 residue C-terminal fragment of α1-antitrypsin (C-36)
T1 sequence (P01009 383-418 limits assumed): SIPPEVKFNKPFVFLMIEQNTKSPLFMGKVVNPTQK
Protocol: (§1) Plasma and CSF solutions were centrifuged (40,000 g, 20 min) to remove any aggregates. The protein concentration was determined using 280 nm absorbance assuming 1 Abs = 1 mg/mL. […] Control samples (without fibril material) were prepared similarly. All samples were incubated at room temperature for one hour under gentle agitation. Fibrils and fibril-bound proteins were pelleted by centrifugation at 17,000 g for 30 minutes. The supernatant (175 μL) was removed and the aggregate was re-suspended in 175 μL PBS and pelleted again before further preparation for gel analysis and spin-filter assisted digest for quantitative MS/MS.
(§2) The fibril-protein pellets were transferred to spin-filters (0.22 μm), washed twice in PBS (100 μL) and once in 1 M NaCl (100 μL). The fibrils and fibril-bound proteins were dissolved by one-hour incubation in 100 μL 6 M guanidinium chloride followed by elution from the spin-filter. The eluted proteins were loaded onto a 3 kDa MWCO filter unit for filter-assisted unfolding, reduction, alkylation, and trypsin digestion. In brief, samples were washed twice in 8 M urea, once in 8 M urea with 50 mM DTT, once in 8 M urea with 50 mM iodoaceteamide, and twice in 8 M Urea. The filter units were dried by centrifugation (14,000 g in 30 minutes) after every addition. Trypsin digestion was carried out with 0.25 μg sequencing grade trypsin from Sigma Aldrich in 50 mM ammonium bicarbonate overnight at 37 °C. The tryptic peptides were collected by centrifugation, acidified with TFA (0.1%) and micro-purified using POROS R2 column material (Applied Biosystems) packed in P200 pipette tips (Sarstedt).
(§3) LC-MS/MS analyses were performed on an EASY-nLC II system (Thermo Fisher Scientific) connected to a TripleTOF 5600+ mass spectrometer (Sciex) equipped with a NanoSpray III source (Sciex) and operated under Analyst TF 1.6.0 control.
(§4) The micro-purified tryptic peptides were dissolved in 0.1% formic acid, injected and trapped on an in-house packed trap column (2 cm × 100 μm I.D) with RP ReproSil-Pur C18-AQ 3 μm resin (Dr. Maisch GmbH). Peptides were eluted from the trap column and separated on a 15 cm analytical column (75 μm i.d.) packed in-house in a pulled emitter with RP ReproSil-Pur C18-AQ 3 μm resin (Dr. Maisch GmbH). Elution from the analytical column was performed with a linear gradient from 5% to 35% phase B (90% acetonitrile with 0.1% formic acid) over 20 min for protein identification and 50 min for quantitative analysis, respectively.
(§5) All samples were analysed three times, yielding nine MS/MS experiments for each fibril for both plasma and CSF. For the area-based extracted ion chromatogram (XIC) quantification, the acquisition method was set up as an information-dependent acquisition (IDA) experiment collecting up to 25 MS/MS spectra in each 1.6 sec cycle using an exclusion window of 6 sec.
(§6) XIC quantification was based on the average ion intensity of the three most abundant peptides for each protein. Only proteins quantified in at least four out of nine MS/MS experiments per fibril were included in the quantification. The total ion scores were visualized after grouping the proteins according to function (Figure S11).
(§7) For each MS/MS experiment, the ion intensities of the individual proteins were normalized to the total ion intensity of that MS/MS experiment to achieve a relative protein composition. The contribution of each protein was averaged over all nine MS/MS experiments (Tables 1 and 2).

Ab2 fibrils = test system: T2, Ab2 fibrils; assay: as above; format: binding, human; set-up: key to Identification status of CSF protein bound: Ab2: *: Identified, but not quantified; —: Not identified in any of the samples; settings: for Relative composition of CSF proteins bound: Ab2: 4:1 w/w CSF protein:fibril
T2 construct: Two structurally distinct fibrils of the Aβ(1–40) peptide associated with AD
Protocol: as §1, §2, §3, §4, §5, §6, §7

glucagon fibrils = target: T3, glucagon fibrils (Homo sapiens, UniProt P01275); assay: as above; format: binding; settings: 4:1 w/w CSF protein:fibril
T3 construct: fibrils of the peptide hormone glucagon
T3 sequence (P01275 53-81 limits assumed): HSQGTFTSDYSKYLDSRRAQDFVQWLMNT
Protocol: as §1, §2, §3, §4, §5, §6, §7

FAS4-AD aggregates = test system: T4, FAS4-AD aggregates; assay: as above; format: binding, human; set-up: key to Identification status of CSF protein bound: FAS4-AD: *: Identified, but not quantified; —: Not identified in any of the samples; settings: for Identification status of CSF protein bound: FAS4-AD: symbol cells
T4 construct: aggregates of a mutated version of the FAS1-4 domain of TGFBIp
Protocol: as §1, §2, §3, §4, §5, §6, §7

αSN fibrils [2] = target: T5, αSN fibrils (Homo sapiens, UniProt P37840); assay: as above; format: binding; set-up: key to Identification status of CSF protein bound: αSN: *: Identified, but not quantified; —: Not identified in any of the samples; settings: for Relative composition of CSF proteins bound: αSN: 4:1 w/w CSF protein:fibril; for Identification status of CSF protein bound: αSN: symbol cells
Protocol: as §1, §2, §3, §4, §5, §6, §7

Ab1 fibrils = test system: T6, Ab1 fibrils; assay: as above; format: binding, human; set-up: key to Identification status of CSF protein bound: Ab1: *: Identified, but not quantified; —: Not identified in any of the samples; settings: for Relative composition of CSF proteins bound: Ab1: 4:1 w/w CSF protein:fibril
T6 construct: Synthetic amyloid β peptide 1–40 was purchased from Caslo Aps (Lyngby, Denmark); purchased Caslo Aps (Lyngby, Denmark); host or cells: synthetic peptide
Protocol: as §1, §2, §3, §4, §5, §6, §7

αSN fibrils [3] = target: T5, αSN fibrils; assay: Fibril incubation with plasma, quantitative MS/MS of bound proteins; format: binding; settings: 50:1 w/w plasma protein:fibril
Protocol: as §1, §2, §3, §4, §5, §6, §7

C-36 fibrils [4] = target: T1, C-36 fibrils; assay: as above; format: binding; settings: 50:1 w/w plasma protein:fibril
Protocol: as §1, §2, §3, §4, §5, §6, §7

Row | Substance | Relative composition of CSF proteins bound: C-36 (C-36 fibrils [1]) | Relative composition of CSF proteins bound: Ab2 (Ab2 fibrils) | Relative composition of CSF proteins bound: Glucagon (glucagon fibrils) | Identification status of CSF protein bound: FAS4-AD (FAS4-AD aggregates) | Relative composition of CSF proteins bound: αSN (αSN fibrils [2]) | Relative composition of CSF proteins bound: Ab1 (Ab1 fibrils) | Identification status of CSF protein bound: C-36 (C-36 fibrils [1]; symbol cells) | Identification status of CSF protein bound: Ab2 (Ab2 fibrils; symbol cells) | Identification status of CSF protein bound: αSN (αSN fibrils [2]) | Identification status of CSF protein bound: Ab1 (Ab1 fibrils; symbol cells) | Relative composition of CSF proteins bound: FAS4-AD (FAS4-AD aggregates; 4:1 w/w CSF protein:fibril) | Relative composition of plasma proteins bound: αSN (αSN fibrils [3]) | Relative composition of plasma proteins bound: C-36 (C-36 fibrils [4])
1 | Gelsolin | 1.9 ± 0.2 % of total protein | 3.5 ± 0.6 % of total protein | 0.8 ± 0.1 % of total protein | — | 5.0 ± 0.9 % of total protein | 2.9 ± 0.1 % of total protein |  |  |  |  |  |  | 
2 | Ig κ chain C region: CSF protein bound to fibrils |  |  | 0.5 ± 0.0 % of total protein | * |  |  | * | * | * | * |  |  | 
3 | Transthyretin | 2.4 ± 0.2 % of total protein | 4.0 ± 1.3 % of total protein | 1.1 ± 0.2 % of total protein |  | 4.3 ± 1.1 % of total protein | 3.0 ± 0.5 % of total protein |  |  |  |  | 4.4 ± 0.3 % of total protein |  | 
4 | Fibronectin | 0.7 ± 0.1 % of total protein | 1.2 ± 0.3 % of total protein | 0.2 ± 0.1 % of total protein | — |  | 0.9 ± 0.0 % of total protein |  |  | * |  |  | 1.0 ± 0.0 % of total protein | 0.2 ± 0.0 % of total protein
